Drawing on PubChem BioAssay (NCI), this text covers TGI and GI50 for eleven compounds.

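Dose response: 5 concentrations. Exposure: 48 h. Format: 96-well plates. Endpoint: linear interpolation; highest concentration if not reached. Abbreviation: GI50, concentration required for 50% inhibition of growth. TGI is the concentration that stops growth completely.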

Holding throughout (experiment): growth of human tumour cells (NCI), 48 h
Test [1] has as its system SK-MEL-28 melanoma.
Test [2] deals with DMS 273 small cell lung.
In test [3] the test system is HOP-18 NSCLC.
Test [4] concerns KM20L2 colon.
For test [5], the system named is MALME-3M melanoma.
Test [6] deals with HT29 colon.
In test [7] the test system is XF 498 CNS.
In test [8] the test system is EKVX NSCLC.
Test [9] relates to MDA-MB-231 breast.
Test [10] deals with HOP-92 NSCLC.
The test system of test [11] is SF-539 CNS.
The test system of test [12] is MDA-N.
The subject of test [13] is DLD-1 colon.

As for `COc1cc(C2C(C(=O)O)=C(COC(C)=O)Oc3cc4c(cc32)OCO4)cc(OC)c1OC` (stereo not drawn), the TGI in test [1], in test [2], in [3], in test [4], in [5] and in [6] was > 100 µM each time. The TGI in test [7] and in [8] was > 100 µM in each case.
Take `O=C1/C(=C/c2ccc(Cl)cc2)N=C(c2ccccc2)N1CCc1cccs1`: the GI50 is 62.8 µM in test [1]; 13.6 µM in [9]; 35.1 µM in [5]; 20.3 µM in test [6]; 3.49 µM in [10]; 13.8 µM in [8]. Further, the GI50 in test [11] is 48.2 µM. Moreover, the TGI in [1] was > 100 µM; in test [9], 98.7 µM; in test [5], > 100 µM; in test [6] it was > 100 µM; in [10], 38.5 µM; in test [8], > 100 µM. Further, the TGI in test [11] was > 100 µM.
Take `N=C(N)SCc1ccc(Cl)cc1Cl` (tested in a mixture with another compound): the TGI in [1] was 45.3 µM; in [9], 25 µM; in [5] it was 34.2 µM; in [6], 29.2 µM; in [10], 34.6 µM; in test [8] it was 37.2 µM. In addition, the figures for the TGI in test [11] and in test [12] were 31.9 µM and 21.6 µM, respectively.
As for `CCCCCCOP(=O)(OCCCCCC)C(NC(=O)OCC)(C(F)(F)F)C(F)(F)F`, the TGI in [1] is > 100 µM; in test [9] it was 56.6 µM; in test [5], > 100 µM; in test [6] it was > 100 µM; in test [10] it was 93.4 µM; in test [8], > 100 µM. In addition, the TGI in [11] and in test [12] was > 100 µM throughout.
With `CO/N=C(\C)COc1ccc2c(=O)c(-c3ccccc3)coc2c1`, the GI50 in test [1] was > 100 µM; in test [9], 20.5 µM; in test [6] it was > 100 µM; in test [10], 17.2 µM. Also, the TGI in [1] is > 100 µM; in test [9], 40.9 µM; in [6] it was > 100 µM; in test [10] it was 43.9 µM.
For the compound `CN(C)c1ccc(C(Cc2ccc3ccccc3n2)Cc2ccc3ccccc3n2)cc1`, the GI50 is 5.41 µM in [9]; 1.96 µM in [5]; 3.83 µM in test [6]; 2.19 µM in [10]; 4.74 µM in [11]. Moreover, the TGI in test [9] is > 100 µM; in test [5] it was > 100 µM; in test [6], > 100 µM; in test [10] it was 6.91 µM; in test [11], > 100 µM.
With `CCOC(=O)C(O)(NC(=O)c1ccccc1F)C(F)(F)F` (stereo not drawn), the TGI in test [1], in test [9], in [5], in test [6], in test [10] and in test [8] was > 100 µM in each case. In addition, the TGI in test [11] and in test [12] was > 100 µM in each case.
For the compound `CC(C)C1=CCC2C(=C1)CCC1C(C)(C(=O)O)CCCC21C` (stereo not drawn) (tested in a mixture with another compound), the TGI in [1], in [9], in test [5], in test [6], in [10] and in [8] was > 100 µM each time. Besides, the TGI in test [11] and in [12] was > 100 µM each time.
On to `O=C(O)c1cn2c3c(cc(N4CCN(CCO)CC4)cc3c1=O)SCC2`, for which the TGI in [1], in [2], in test [3], in [4], in test [5] and in [6] was > 100 µM throughout. The TGI was > 100 µM in test [13]; 67.2 µM in [7]; > 100 µM in [10]; > 100 µM in [8]; > 100 µM in test [11].
`CNC(=O)N(C)COC`: the TGI in test [1], in [3], in [4], in test [5], in test [6] and in test [13] was > 100 µM throughout. Also, the TGI in test [7], in [8] and in test [11] was > 100 µM in each case.
Take `Cc1c2cnccc2c(C)c2c1c1ccccc1n2CCCCCCNCc1ccccc1`: the TGI in [1] was found to be 4.41 µM; in test [2], 2.47 µM; in test [3] it was 0.923 µM; in test [4], 3.33 µM; in test [5] it was 4.61 µM; in test [6], 3.13 µM. Further, the TGI came out at 2.92 µM in test [13]; 4.37 µM in test [7]; 3.64 µM in [10]; 3.94 µM in test [8]; 3.61 µM in test [11].
